{
  "source": "the supplement of paper PMC10307832",
  "assay_in_all_cases": "relative viability (nuclei count vs DMSO), 5 days (fraction); higher = more cells survive",
  "key": {"[1]": {"compound": "COc1cc2nc(N3CCCN(C)CC3)nc(NC3CCN(Cc4ccccc4)CC3)c2cc1OC + CCNC(=O)c1noc(-c2cc(C(C)C)c(O)cc2O)c1-c1ccc(CN2CCOCC2)cc1 [Luminespib] (partner 0.01 µM)", "procedure,_shortened": "(§1)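 Lung cancer cell lines in 1536-well plates were dosed by pin tool the day after seeding, either with one drug alone or with a fixed anchor-drug dose plus five library-drug doses (not always all listed) in √10 steps. After 5 days, cells were fixed and their nuclei stained in one step (final 0.05% Triton X-100, 1% formaldehyde, 1 ug/ml Hoechst), then counted on 4× images. Relative viability is the nuclei count in treated wells divided by that in vehicle wells. Values are medians of duplicate plates.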"}, "[2]": {"compound": "COc1cc2nc(N3CCCN(C)CC3)nc(NC3CCN(Cc4ccccc4)CC3)c2cc1OC + O=C(c1cc(Cc2n[nH]c(=O)c3ccccc23)ccc1F)N1CCN(C(=O)C2CC2)CC1 [Olaparib] (partner 8 µM)", "procedure,_shortened": "as §1"}, "[3]": {"compound": "COc1cc2nc(N3CCCN(C)CC3)nc(NC3CCN(Cc4ccccc4)CC3)c2cc1OC + CC(C)C[C@H](NC(=O)[C@H](Cc1ccccc1)NC(=O)c1cnccn1)B(O)O [Bortezomib] (partner 0.002 µM)", "procedure,_shortened": "as §1"}, "[4]": {"compound": "Cc1cc([C@@H](C)Nc2ccccc2C(=O)O)c2nc(N3CCOCC3)cc(=O)n2c1 [AZD6482] + C[C@@H](Oc1cc(-c2cnn(C3CCNCC3)c2)cnc1N)c1c(Cl)ccc(F)c1Cl [Crizotinib] (partner 1 µM)", "procedure,_shortened": "as §1"}},
  "data": [
    {"cell line": "UMC-11", "values": [
      {"measurement": "relative viability", "setting": "[1]; first compound 0.2 µM", "result": 1.06},
      {"measurement": "relative viability", "setting": "[1]; first compound 0.6325 µM", "result": 1.08},
      {"measurement": "relative viability", "setting": "[1]; first compound 2 µM", "result": 1.05},
      {"measurement": "relative viability", "setting": "[1]; first compound 6.325 µM", "result": 0.816},
      {"measurement": "relative viability", "setting": "[2]; first compound 0.2 µM", "result": 0.38},
      {"measurement": "relative viability", "setting": "[2]; first compound 0.6325 µM", "result": 0.391},
      {"measurement": "relative viability", "setting": "[2]; first compound 2 µM", "result": 0.385},
      {"measurement": "relative viability", "setting": "[2]; first compound 6.325 µM", "result": 0.221},
      {"measurement": "relative viability", "setting": "[3]; first compound 0.2 µM", "result": 0.737},
      {"measurement": "relative viability", "setting": "[3]; first compound 0.6325 µM", "result": 0.778},
      {"measurement": "relative viability", "setting": "[3]; first compound 2 µM", "result": 0.71},
      {"measurement": "relative viability", "setting": "[3]; first compound 6.325 µM", "result": 0.594},
      {"measurement": "relative viability", "setting": "[4]; first compound 0.08 µM", "result": 0.505},
      {"measurement": "relative viability", "setting": "[4]; first compound 0.253 µM", "result": 0.578},
      {"measurement": "relative viability", "setting": "[4]; first compound 0.8 µM", "result": 0.628},
      {"measurement": "relative viability", "setting": "[4]; first compound 2.53 µM", "result": 0.516},
      {"measurement": "relative viability", "setting": "[4]; first compound 8 µM", "result": 0.511}
    ]}
  ]
}
